The NIST ThermoML archive (doi:10.1016/j.fluid.2014.10.015)
± gives the expanded uncertainty stated by the source.

Conditions: for mass density / viscosity: Liquid; for mass density: Vibrating tube method; for surface tension liquid-gas: Pendant drop shape; for viscosity: Concentric cylinders viscometry

CC(=O)[O-].CCCCn1cc[n+](C)c1 [1-butyl-3-methylimidazolium acetate]
Conditions | mass density [kg/m3] | viscosity [mPa·s]
293.15 K, 101.33 kPa | 1055.7 ± 6 | –
293.15 K, 928 kPa | 1056.02 ± 6 | –
293.15 K, 10042 kPa | 1059.57 ± 6.1 | –
293.15 K, 29991 kPa | 1067.08 ± 6.2 | –
293.15 K, 50024 kPa | 1074.3 ± 6.4 | –
293.15 K, 59451 kPa | 1077.57 ± 6.5 | –
293.15 K, 70011 kPa | 1081.16 ± 6.5 | –
293.15 K, 79858 kPa | 1084.42 ± 6.6 | –
293.16 K, 4731 kPa | 1057.51 ± 6.1 | –
293.16 K, 39318 kPa | 1070.48 ± 6.3 | –
298.13 K, 119989 kPa | 1094.32 ± 6.9 | –
298.14 K, 19965 kPa | 1060.4 ± 6.1 | –
298.14 K, 59928 kPa | 1075.03 ± 6.4 | –
298.15 K, 101 kPa | 1052.59 ± 6 | –
298.15 K, 101.33 kPa | 1052.59 ± 6 | 447.5 ± 19
298.15 K, 1002 kPa | 1052.95 ± 6 | –
298.15 K, 10002 kPa | 1056.52 ± 6.1 | –
298.15 K, 29947 kPa | 1064.19 ± 6.2 | –
298.15 K, 49953 kPa | 1071.51 ± 6.4 | –
298.15 K, 70002 kPa | 1078.49 ± 6.5 | –
298.15 K, 89954 kPa | 1085.08 ± 6.7 | –
298.15 K, 109924 kPa | 1091.31 ± 6.8 | –
298.15 K, 129954 kPa | 1097.2 ± 7 | –
298.15 K, 139957 kPa | 1100.01 ± 7.1 | –
298.16 K, 5001 kPa | 1054.55 ± 6 | –
298.16 K, 39934 kPa | 1067.89 ± 6.3 | –
298.16 K, 80006 kPa | 1081.84 ± 6.6 | –
298.16 K, 99359 kPa | 1088.06 ± 6.8 | –
313.13 K, 101.33 kPa | 1043.35 ± 5.9 | –
313.13 K, 20418 kPa | 1051.65 ± 6 | –
313.13 K, 30021 kPa | 1055.44 ± 6.1 | –
313.13 K, 39510 kPa | 1059.09 ± 6.2 | –
313.13 K, 50039 kPa | 1063.04 ± 6.2 | –
313.14 K, 59562 kPa | 1066.53 ± 6.3 | –
313.14 K, 139775 kPa | 1092.44 ± 7 | –
313.15 K, 101 kPa | 1043.35 ± 5.9 | –
313.15 K, 101.33 kPa | – | 155 ± 5.4
313.15 K, 70013 kPa | 1070.25 ± 6.4 | –
313.15 K, 119744 kPa | 1086.54 ± 6.8 | –
313.15 K, 129979 kPa | 1089.6 ± 6.9 | –
313.16 K, 10222 kPa | 1047.54 ± 6 | –
313.16 K, 79427 kPa | 1073.52 ± 6.5 | –
313.16 K, 89989 kPa | 1077.08 ± 6.5 | –
313.16 K, 98994 kPa | 1080.03 ± 6.6 | –

Conditions | surface tension liquid-gas [mN/m]
293.2 K | 37.87 ± 1.4
298.2 K | 37.61 ± 1.4
303.2 K | 37.36 ± 1.4
308.2 K | 37.11 ± 1.4
